Source: patent US5283247A, “Anticonvulsant substituted quinazolones” (Research Corporation Technologies, Inc., priority 1992, dated 1994)

Experiments:
[1] = cited from earlier work
[2] = 24 hour mortality / toxicity in mice after test compound and pentylenetetrazol; type: in vivo, male mice (Swiss-Webster); conditions: for 24 Hour Mortality: 100 mg/kg ip, 24 hours after pentylenetetrazol injection, groups of 10; for toxicity at the effective dosage: Example 6, 100 mg/kg ip
Description: (§1) The mice were divided in groups of 10, keeping the group weights equal as far as possible. The quinazolones shown in Table 2 as well as methaqualone were injected ip (100 mg/kg) in a 5% aqueous suspension of gum acacia to one group of 10 animals. One hour after the administration of quinazolones, the mice were injected with pentylenetetrazol (90 mg/kg) sc under the loose skin of the back. […] The mice were then observed for the following 60 minutes for the occurrence of seizures. One episode of clonic spasm which persisted for a minimum period of 5 seconds was considered a threshold convulsion. Transient intermittent jerks or tremulousness were not taken into account. Animals devoid of even a threshold convulsion during the period of 60 minutes were considered protected. […] Mortality was recorded 24 hours after the pentylenetetrazol injection. After the injection of test compounds, behavioral observations were also made. […] 2 and compound no.

[3] = pentylenetetrazol-induced seizure in rats; type: in vivo; conditions: 50 mg/kg orally
Description: (§2) Compound No. 2 was also tested in rats. Four rats were treated with compound no. 2 at a dosage of 50 mg/kg orally. Anticonvulsant effects of compound no. […] The toxic symptoms were also observed. It can be seen from this table that compound no.

[4] = Maximal Electric Shock (MES) seizure in mice; type: in vivo; conditions: 30 mg/kg ip in mice
Description: In addition, compound no. 2 was also tested against Maximal Electric Shock (MES) seizure. Compound no.
(§3) Maximal electroshock seizures were elicited with a 60 cycle alternating current of 50mA intensity (5-7 times that necessary to elicit minimal electroshock seizures) delivered for 0.2 seconds via corneal electrodes. A drop of 0.9% saline was instilled in the eye prior to application of the electrodes in order to […]. Abolition of the hind limb tonic extension component of the seizure was defined as protection.

[5] = therapeutic index compared with methaqualone; conditions: conclusion from Examples 6, 7 and 8
approximate LD50 in mice = conditions: mouse, in vivo, ip; male ICR mice, observed 24 hours
Description: (§4) Dose response and time response studies were performed with compound no. 2 by injecting it into a group of 10 male Swiss-Webster mice. In addition, a group of 10 male ICR mice were injected with different dosages of compound no. 2 to determine the approximate LD50.
Approximate LD50 was determined in male ICR mice.

toxic symptoms in rats = type: in vivo; conditions: 50 mg/kg orally
Description: as §2

[6] = pentylenetetrazol (90 mg/kg sc) induced seizures in mice, percent protection; type: in vivo, male mice (Swiss-Webster); conditions: for Percent Protection against pentylenetetrazol (dose response): pentylenetetrazol 90 mg/kg s.c. given 1 hour after; for Percent Protection: 100 mg/kg ip, pentylenetetrazol 90 mg/kg sc one hour later, observed 60 minutes (Table 3); for Percent Protection / protection against pentylenetetrazol seizures: mice; for Percent Protection against pentylenetetrazol (time response): pentylenetetrazol 90 mg/kg s.c.; for protection against pentylenetetrazol seizures: Example 6, 100 mg/kg ip
Description: as §1, §4

[7] = behavioral observations / gross CNS effects in mice; type: in vivo, male mice (Swiss-Webster); conditions: 100 mg/kg ip, after injection of test compounds
Description: The mice were divided in groups of 10, keeping the group weights equal as far as possible. The quinazolones shown in Table 2 as well as methaqualone were injected ip (100 mg/kg) in a 5% aqueous suspension of gum acacia to one group of 10 animals. One hour after the administration of quinazolones, the mice were injected with pentylenetetrazol (90 mg/kg) sc under the loose skin of the back. […] The mice were then observed for the following 60 minutes for the occurrence of seizures. One episode of clonic spasm which persisted for a minimum period of 5 seconds was considered a threshold convulsion. Transient intermittent jerks or tremulousness were not taken into account. Animals devoid of even a threshold convulsion during the period of 60 minutes were considered protected. […] Mortality was recorded 24 hours after the pentylenetetrazol injection. After the injection of test compounds, behavioral observations were also made.

[8] = maximal electric shock seizures (MES) in rats; type: in vivo; conditions: 50 mg/kg orally
Description: as §2, §3

[9] = reference 3; cited from earlier work

SMILES: Cc1nc2ccccc2c(=O)n1-c1ccccc1C(F)(F)F [2-methyl-3-(2-trifluoromethylphenyl)-4-quinazolone]
- sedative effect compared with methaqualone ([1]; reference 4): better sedative effect
- toxicity compared with methaqualone ([1]; reference 4): lower toxicity

SMILES: Cc1cccnc1-n1c(C)nc2ccccc2c1=O [Compound 2, 2-Methyl-3-(3-methyl-2-pyridyl)-4-quinazolone]
- 24 Hour Mortality [2]: 0
- toxicity at the effective dosage [2]: did not exhibit any toxicity
- Percent protection against pentylenetetrazol ([3]; 0.25 Hr., three rats): 33.3%
- Percent protection against pentylenetetrazol ([3]; 0.5 Hr., four rats): 75%
- Percent protection against pentylenetetrazol ([3]; 1 Hr., four rats): 25%
- Percent protection against pentylenetetrazol ([3]; 4 Hr., four rats): 25%
- protection against pentylenetetrazol-induced seizure ([3]; all time periods, Example 8): protected against both MES and pentylenetetrazol-induced seizure at all time periods
- protection against MES [4]: 100%
- therapeutic index versus methaqualone [5]: higher therapeutic indices than methaqualone
- LD50 at 24 h (approximate LD50 in mice): ~1000 mg/kg
- Toxicity in percent rats (toxic symptoms in rats; 0.25 Hr.): 0%
- Toxicity in percent rats (toxic symptoms in rats; 0.5 Hr.): 0%
- Toxicity in percent rats (toxic symptoms in rats; 1 Hr.): 0%
- Toxicity in percent rats (toxic symptoms in rats; 2 Hr.): 0%
- Toxicity in percent rats (toxic symptoms in rats; 4 Hr.): 0%
- toxic symptoms (toxic symptoms in rats; rats, all time periods, Example 8): without exhibiting any toxic symptoms
- Percent Protection against pentylenetetrazol (dose response) ([6]; 40 mg/kg i.p.): 20%
- Percent Protection against pentylenetetrazol (dose response) ([6]; 60 mg/kg i.p.): 80%
- Percent Protection against pentylenetetrazol (dose response) ([6]; 80 mg/kg i.p.): 90%
- Percent Protection against pentylenetetrazol (dose response) ([6]; 100 mg/kg i.p.): 100%
- Percent Protection [6]: 100%
- Percent Protection against pentylenetetrazol (time response) ([6]; 1 hr after injection, 100 mg/kg i.p.): 100%
- Percent Protection against pentylenetetrazol (time response) ([6]; 2 hr after injection, 100 mg/kg i.p.): 60%
- Percent Protection against pentylenetetrazol (time response) ([6]; 3 hr after injection, 100 mg/kg i.p.): 0%
- Percent Protection against pentylenetetrazol (time response) ([6]; 4 hr after injection, 100 mg/kg i.p.): 0%
- protection against pentylenetetrazol seizures [6]: 100%
- Behavioral Observations [7]: mild sedation
- Percent protection against MES ([8]; 0.25 Hr.): 75%
- Percent protection against MES ([8]; 0.5 Hr.): 50%
- Percent protection against MES ([8]; 1 Hr.): 75%
- Percent protection against MES ([8]; 2 Hr.): 50%
- Percent protection against MES ([8]; 4 Hr.): 25%
- protection against MES ([8]; all time periods, Example 8): protected against both MES and pentylenetetrazol-induced seizure at all time periods

SMILES: Cc1ccccc1-n1c(C)nc2ccccc2c1=O [Compound 1, 2-methyl-3-o-tolyl-4-quinazolone]
- 24 Hour Mortality [2]: 0
- Percent Protection [6]: 100%
- metabolism in the body [9]: metabolized in the body to the N^1 -oxide of the compound
- abuse potential ([1]; in vivo): high abuse potential

SMILES: Cc1ccccc1-n1c(C)nc2cc(N)ccc2c1=O [Compound 14, 2-Methyl-3-o-tolyl-7-amino-4-quinazolone]
- 24 Hour Mortality [2]: 0
- toxicity at the effective dosage [2]: did not exhibit any toxicity
- therapeutic index versus methaqualone [5]: higher therapeutic indices than methaqualone
- Percent Protection [6]: 100%
- protection against pentylenetetrazol seizures [6]: 100%
- Behavioral Observations [7]: none
